What was measured:
Format in all cases: cell-based, humaine
HT29-MTX = test: Mucin secretion by HT29-MTX cells (ELLA on culture supernatants); conditions: pre-incubation with cyprodime 10^-5 M
Protocol: (§1) Les cellules HT29-MTX et HT29-CI16E étaient cultivées en flasques de 25 cm^2 avec du milieu minimum essentiel DMEM supplémenté avec 10% de SVF (sérum de veau foetal) et 1 % d'antibiotiques (pénicilline 10 000 Ul/ml et streptomycine […]). Les cellules étaient incubées à 37°C dans une atmosphère humide (5 % de CO2 et […]). A confluence, les cellules soumises au préalable à l'action de la trypsine (trypsine-EDTA) étaient cultivées dans des plaques 12 puits à raison de 1 ml de milieu de culture complet par puits. Afin de maintenir les cellules dans des conditions optimales de croissance, le milieu de culture était changé tous les 2 jours.
(§2) Les expériences ont été réalisées sur les plaques 12 puits 21 jours après confluence des cellules. La veille de la stimulation, les plaques étaient cultivées sans SVF. Le pool peptidique total des yaourts ainsi que les différentes fractions lyophilisées étaient d'abord repris dans de l'eau stérile en solution 10 fois concentrée (10[Y]), [Y] correspondant à la concentration des peptides dans le yaourt initial). L'osmolarité et le pH des échantillons (ajusté à la neutralité par NaOH) étaient contrôlés à ce stade. Des dilutions successives ([Y], [Y]/2 et [Y]/5) étaient ensuite réalisées dans du milieu de culture dépourvu de SVF. Le jour de l'expérience, le milieu était aspiré puis les cellules étaient lavées avec du PBS à 37°C. […]

MUC2 = MUC2 expression in HT29-MTX cells (RT-PCR); conditions: with cyprodime 10^-5 M
Protocol: as §1
as §2, with “stade.” for “stade. Des dilutions successives ([Y], [Y]/2 et [Y]/5) étaient ensuite réalisées dans du milieu de culture dépourvu de SVF. Le jour de l'expérience, le milieu était aspiré puis les cellules étaient lavées avec du PBS à 37°C.”
(§3) Les ARN ont été isolés et rétro-transcrits comme décrit précédemment puis les ADNc ont été quantifiés en capillaires à l'aide du kit « FastStart DNA Master SYBR Green l » sur un appareil « lightCycler » (Roche). […]

MUC4 = MUC4 expression in HT29-MTX cells (RT-PCR)
Protocol: as §1
as §2, with “stade.” for “stade. Des dilutions successives ([Y], [Y]/2 et [Y]/5) étaient ensuite réalisées dans du milieu de culture dépourvu de SVF. Le jour de l'expérience, le milieu était aspiré puis les cellules étaient lavées avec du PBS à 37°C.”
as §3

MUC5AC = MUC5AC expression in HT29-MTX cells (RT-PCR); conditions: with cyprodime, quantitative RT-PCR (Lightcycler)
Protocol: as §1
as §2, with “stade.” for “stade. Des dilutions successives ([Y], [Y]/2 et [Y]/5) étaient ensuite réalisées dans du milieu de culture dépourvu de SVF. Le jour de l'expérience, le milieu était aspiré puis les cellules étaient lavées avec du PBS à 37°C.”
as §3

COc1cccc2c1[C@]13CCN(CC4CC4)[C@H](C2)[C@]1(OC)CCC(=O)C3 [cyprodime]
sécrétion de mucines induite par la fraction F3 (HT29-MTX; fraction F3 at concentration Y): inhibe
sécrétion de mucines induite par la fraction C2 (HT29-MTX; then fraction C2 at concentration Y, 4 h): inhibe
effet de la fraction C2 sur l'expression de MUC2 (MUC2): aboli
effet de la fraction C2 sur l'expression de MUC4 (MUC4; with cyprodime 10^-5 M): aboli
augmentation du niveau des transcrits codant MUC4 induite par la fraction F3 (MUC4; with cyprodime, quantitative RT-PCR (Lightcycler)): Un résultat identique
augmentation du niveau des transcrits codant MUC5AC induite par la fraction F3 (MUC5AC): abolit

— EP2430044B1, “PEPTIDES INCREASING THE SECRETION AND/OR EXPRESSION OF AT LEAST ONE GAS[…] AND/OR INDUCING THE INCREASE OF MUCUS CELLS OR PANETH CELLS” (Institut National de la Recherche Agronomique (INRA), priority 2009, dated 2010)
